Results taken from EP0151939A2, “Pyrimidinediones and dihydroxypyrimidines, and process for the preparation of pyrimidinedones and dihydroxypyrimidines” (BAYER AG, priority 1984, dated 1985).

Key:
Assay type in all cases: in vivo
Weizen [1] = test: Post-emergence test; conditions: 1 kg/ha, rated after three weeks
Description: (§1) Lösungsmittel: 5 Gewichtsteile Aceton Emulgator: 1 Gewichtsteil Alkylarylpolyglykolether Zur Herstellung einer zweckmäßigen Wirkstoffzubereitung vermischt man 1 Gewichtsteil Wirkstoff mit der angegebenen Menge Lösungsmittel, gibt die angegebene Menge Emulgator zu und verdünnt das Konzentrat mit Wasser auf die gewünschte Konzentration.
(§2) Mit der Wirkstoffzubereitung spritzt man Testpflanzen, welche eine Höhe von 5 - 15 cm haben so, daß die jeweils gewünschten Wirkstoffmengen pro Flächeneinheit ausgebracht werden. Die Konzentration der Spritzbrühe wird so gewählt, daß in 2000 1 Wasser/ha die jeweils gewünschten Wirkstoffmengen ausgebracht werden. Nach drei Wochen wird der Schädigungsgrad der Pflanzen bonitiert.

Senf [2] = test: Post-emergence test; conditions: 1 kg/ha, rated after three weeks
Description: as §1, §2

Rüben [3] = test: Post-emergence test; conditions: 1 kg/ha, rated after three weeks
Description: as §1, §2

Hafer [4] = test: Pre-emergence test; conditions: 2 kg/ha, rated after three weeks
Description: (§3) Losungsmittel: 5 Gewichtsteile Aceton Emulgator: 1 Gewichtsteil Alkylarylpolyglykolether
(§4) Zur Herstellung einer zweckmäßigen Wirkstoffzubereitung vermischt man 1 Gewichtsteil Wirkstoff mit der angegebenen Menge Lösungsmittel, gibt die angegebene Menge Emulgator zu und verdünnt das Konzentrat mit Wasser auf die gewünschte Konzentration.
(§5) Samen der Testpflanzen werden in normalen Boden ausgesät und nach 24 Stunden mit der Wirkstoffzubereitung begossen. Dabei hält man die Wassermenge pro Flächeneinheit zweckmäßigerweise konstant. Die Wirkstoffkonzentration in der Zubereitung spielt keine Rolle, entscheidend ist nur die Aufwandmenge des Wirkstoffs pro Flächeneinheit. Nach drei Wochen wird der Schädigungsgrad der Pflanzen bonitiert.

Weizen [5] = test: Pre-emergence test; conditions: 2 kg/ha, rated after three weeks
Description: as §3, §4, §5

Mais [6] = test: Pre-emergence test; conditions: 2 kg/ha, rated after three weeks
Description: as §3, §4, §5

Senf [7] = test: Pre-emergence test; conditions: 2 kg/ha, rated after three weeks
Description: as §3, §4, §5

Hafer [8] = test: Post-emergence test; conditions: 1 kg/ha, rated after three weeks
Description: as §1, §2

Mais [9] = test: Post-emergence test; conditions: 1 kg/ha, rated after three weeks
Description: as §1, §2

Bohnen = test: Post-emergence test; conditions: 1 kg/ha, rated after three weeks
Description: as §1, §2

Baumwolle = test: Post-emergence test; conditions: 1 kg/ha, rated after three weeks
Description: as §1, §2

Rüben [10] = test: Pre-emergence test; conditions: 2 kg/ha, rated after three weeks
Description: as §3, §4, §5

Hirse = test: Pre-emergence test; conditions: 2 kg/ha, rated after three weeks
Description: as §3, §4, §5

| SMILES | Wirkung (Schädigungsgrad der Pflanzen) (Weizen [1]) | Wirkung (Schädigungsgrad der Pflanzen) (Senf [2]) | Wirkung (Schädigungsgrad der Pflanzen) (Rüben [3]) | Wirkung (Schädigungsgrad der Pflanzen) (Hafer [4]) | Wirkung (Schädigungsgrad der Pflanzen) (Weizen [5]) | Wirkung (Schädigungsgrad der Pflanzen) (Mais [6]) | Wirkung (Schädigungsgrad der Pflanzen) (Senf [7]) | Wirkung (Schädigungsgrad der Pflanzen) (Hafer [8]) | Wirkung (Schädigungsgrad der Pflanzen) (Mais [9]) | Wirkung (Schädigungsgrad der Pflanzen) (Bohnen) | Wirkung (Schädigungsgrad der Pflanzen) (Baumwolle) | Wirkung (Schädigungsgrad der Pflanzen) (Rüben [10]) | Wirkung (Schädigungsgrad der Pflanzen) (Hirse) |
| --- | --- | --- | --- | --- | --- | --- | --- | --- | --- | --- | --- | --- | --- |
| O=c1[nH]c(C(F)(F)F)c(F)c(=O)[nH]1 [Produkt aus Beispiel 5 und 14, 5-Fluor-6-trifluormethyl-2,4-(lH,3H)-pyrimidindion] | praktisch nicht | vollständig oder nahezu vollständig vernichtet | vollständig oder nahezu vollständig vernichtet | zum größeren Teil ver-nichtet | fast nicht | fast nicht | zum größeren Teil ver-nichtet |  |  |  |  |  |  |
| O=c1[nH]c(C(F)(F)F)c(Cl)c(=O)[nH]1 [Produkt aus Beispiel 13, 5-Chlor-6-trifluor-2,4-(lH,3H)-pyrimidindion] | praktisch nicht | voll-ständig oder nahezu vollständig vernichtet | praktisch nicht |  |  |  |  | praktisch nicht | voll-ständig oder nahezu vollständig vernichtet | voll-ständig oder nahezu vollständig vernichtet | voll-ständig oder nahezu vollständig vernichtet |  |  |
| O=c1[nH]c(C(F)(F)Cl)c(Cl)c(=O)[nH]1 [Produkt aus Beispiel 15] | praktisch nicht | vollständig vernichtet |  | praktisch nicht | praktisch nicht | praktisch nicht | nahezu vollständig ver-nichtet | praktisch nicht | praktisch nicht |  |  | nahezu vollständig ver-nichtet |  |
| O=c1[nH]c(C(F)(Cl)Cl)c(Cl)c(=O)[nH]1 [Produkt aus Beispiel 16] |  |  |  | praktisch nicht | praktisch nicht | praktisch nicht | zum größeren Teil vernichtet |  |  |  |  |  | praktisch nicht |
